Consider 35 compounds from patent US7947707B2, “Nitrogenated heterocyclic compound and pharmaceutical composition comprising the same” (Kissei Pharmaceutical Co., Ltd., priority 2005, dated 2011).

In test [1] the target is T1, xanthine oxidase (from buttermilk) (Bos taurus, UniProt P80457).
T1 construct: xanthine oxidase (from buttermilk; biozyme laboratories); purchased biozyme laboratories; host or cells: buttermilk (natural source)
The test is described as follows: Xanthine oxidase inhibitory effect. It counts as biochemical. The settings on record: 100 μmol/L xanthine, 5 mU/mL enzyme; read-out: X.O. inhibition IC50. The procedure: Assay for inhibition of xanthine oxidase was performed in 100 μmol/L substrate concentration (final concentration), 5 mU/mL enzyme concentration (final concentration) and compounds of the present invention as test compounds which were prepared with xanthine oxidase (from buttermilk; biozyme laboratories), xanthine (Sigma) and phosphate-buffered saline (PBS). In addition, all test compounds were frozen for preservation in condition of 20 mmol/L DMSO solution and used for experiments after thawing at need. Method is following: after diluted solution of test compound was added to 90 μL of 11.1 mU/mL enzyme solution, the mixture was incubated for 10 minutes after mixing. To start reaction, 100 μL of 200 μmol/L substrate solution was added to there, 10 minutes later, the reaction was stopped by addition of 500 μL of 0.5 mol/L sulfuric acid, and then absorbance at […] was measured. Final concentration of test compound was a single concentration, 10 μmol/L in single well for initial screening and 6 concentrations, 10, 1 μmol/L, 100, 10, 1 nmol/L, 100 pmol/L in duplicate for assay to calculate 50% inhibitory concentration (IC50) which were used for assay. Percent inhibition was calculated according to the formula described below. Percent inhibition (%)=(A−B)/(A−C)×100
In formula, A means absorbance in wells without test compound, B means absorbance in wells with test compound, C means absorbance in blank wells.
IC50 value was calculated from percent inhibition in each concentration by nonlinear regression method.

Test [2] concerns potassium oxonate induced hyperuricemia. The test is described as follows: Blood hypouricemic effect, potassium oxonate induced hyperuricemia. It counts as in vivo. The following applies: Rattus norvegicus, po; 10 mg/kg orally; male SD rats; serum 2 hours after administration; read-out: Decrease (%) in UA concentration. As to the method:
Effect of compound of the present invention as a test compound was studied on potassium oxonate induced hyperuricemia with male 7-week-old SD rats (Charles River Japan) and potassium oxonate (Aldrich) suspended in 1% gum arabic solution. Test compound was suspended in 0.5% CMC-Na solution, and then administered orally. Dosing was 10 mg/kg or 50 mg/kg. All volume of administered solution was 10 mL/kg. Potassium oxonate 250 mg/kg was administered to dorsal region of rats subcutaneously, 1 hour later each test compound was administered orally. For control group, only 0.5% CMC-Na solution as a vehicle was administrated. At 2 hours after administration of test compounds or vehicle, blood was collected under ether anesthesia, and serum was separated according to general method. Treated number was 5 for each group.
Measurement of concentration of uric acid was conducted with following prepared reagents. The deproteinization reagent was prepared in the following manner; 100 g of sodium tungstate was added to a 2 L flask, and exactly 75 mL of 85% phosphoric acid and 500 mL of water were added to the flask equipped with a reflux condenser, and heated for an hour. After cooling, the resulting faint yellow-green solution was diluted to 1 L exactly. Sodium carbonate-urea reagent was prepared in the following manner; 14 g of anhydrous sodium carbonate and 14 g of urea were dissolved in water and final volume of the solution was adjusted to 100 mL exactly. Phosphotungstic coloring reagent was prepared in 4-fold dilution of deproteinzation reagent described above with water. UA standard solution (10 mg/dL: Kyokuto pharmaceutical industrial CO., LTD) was used as an uric acid standard solution, and then serially diluted uric acid standard solution with purified water was also used for standard curve.
Three hundred μL of serum or standard was added to 2.1 mL of purified water, and then 150 μL of deproteination reagent was also added to the solution, followed by mixing. After incubating for 20 minutes, the mixture was centrifuged at 3000 rpm for 10 minutes. Sodium carbonate-urea reagent (0.5 mL) was added to 1.5 mL of supernatant, and the mixture was incubated for 20 minutes. Next, after addition of 250 μL of coloring reagent, further incubation was carried over 15 minutes. Absorbance at 660 nm was measured, and concentration of uric acid was calculated with standard curve. Percent decrease in concentration of uric acid was calculated by following formula. Percent decrease in concentration of uric acid (%)=(A−B)/A×100
In formula, A means average of concentration of blood uric acid in control group, B means average of concentration of blood uric acid in test compounds-treated group.

In test [3] the target is T2, HEK293 cells forced to express URAT1 (Homo sapiens, UniProt Q96S37).
T2 construct: host or cells: HEK293
T2 sequence (Q96S37 1-553): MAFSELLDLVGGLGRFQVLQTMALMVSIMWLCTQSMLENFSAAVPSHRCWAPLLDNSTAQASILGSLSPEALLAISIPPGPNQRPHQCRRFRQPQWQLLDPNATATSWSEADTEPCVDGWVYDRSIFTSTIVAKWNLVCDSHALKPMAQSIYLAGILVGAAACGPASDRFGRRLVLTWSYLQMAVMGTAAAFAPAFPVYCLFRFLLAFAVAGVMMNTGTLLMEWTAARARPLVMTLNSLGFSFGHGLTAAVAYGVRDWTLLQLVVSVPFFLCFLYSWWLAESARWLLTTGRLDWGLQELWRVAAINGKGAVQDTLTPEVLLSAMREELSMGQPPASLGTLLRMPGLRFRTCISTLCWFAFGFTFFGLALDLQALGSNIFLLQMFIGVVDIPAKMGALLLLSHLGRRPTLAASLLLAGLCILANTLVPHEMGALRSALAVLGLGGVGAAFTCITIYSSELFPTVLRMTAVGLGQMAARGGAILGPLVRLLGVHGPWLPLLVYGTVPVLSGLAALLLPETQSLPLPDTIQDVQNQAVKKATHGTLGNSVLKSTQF
The test is described as follows: URAT1 inhibitory effect, [8-14C] uric acid uptake. It counts as cell-based. The following applies: test compound 100 μmol/L, 20 μmol/L uric acid, 5 minutes uptake. The source says:
DMEM containing 10% FBS (supplemented with 0.05% geneticin, Nissui Pharmaceutical Co., Ltd.), HEK293 cells forced to express URAT1 (HCS (Human cell Systems), (Fuji Biomedix)), HBSS as washing buffer and HBSS substituted with Na-gluconate (NaCl in HBSS was substituted with Na-gluconate) were used for assay. [8-^14C] uric acid (moravek) was used as an uric acid reagent and added to assay buffer at 20 μmol/L as a final concentration. Compounds of the present invention were used as a test compound, 20 mmol/L stock solution of each test compound (DMSO solution) was diluted appropriately, and then the diluted test compound solution was added to assay buffer at 100 μmol/L as a final concentration including 0.5% final concentration of DMSO.
To prepare assay plates, at first, cells on subculture petri dish were peeled off using treatment of 0.05% trypsin-EDTA solution, and then seeded on Biocoat Poly-D-Lysine Cellware 24 well plate (BECTON DICKINSON) at a density of 2×10^5 cells/well and cultured for 2 days.
For the uptake study, at first, culture medium was removed by aspiration and cells were washed twice with HBSS (37° C.), then the buffer was replaced with 1 mL of assay buffer (37° C.). Cells were pre-incubated for 10 minutes. And then, the buffer was removed by aspiration and 0.5 mL of radioisotope ligand solution incubated at 37° C. was added, then cells were incubated for 5 minutes. After uptake, radioisotope solution was removed by aspiration, and immediately cells were washed three times with ice-cold HBSS, followed by resolving by addition of 0.5 mL of 0.5 mol/L NaOH. Cell lysate solution was transferred to a vial or 24 well plate for Betaplate, and mixed with 0.5 mL of liquid scintillator (Optiphase ‘Super Mix’; Perkin Elmer). Radioisotope activity was measured (using Betaplate 1450). As mean count in control solution not including test compound was 100%, percent inhibition was calculated by determining percent decrease in mean count in solution including test compound from mean count in control solution.

T1 sequence (P80457 whole entry): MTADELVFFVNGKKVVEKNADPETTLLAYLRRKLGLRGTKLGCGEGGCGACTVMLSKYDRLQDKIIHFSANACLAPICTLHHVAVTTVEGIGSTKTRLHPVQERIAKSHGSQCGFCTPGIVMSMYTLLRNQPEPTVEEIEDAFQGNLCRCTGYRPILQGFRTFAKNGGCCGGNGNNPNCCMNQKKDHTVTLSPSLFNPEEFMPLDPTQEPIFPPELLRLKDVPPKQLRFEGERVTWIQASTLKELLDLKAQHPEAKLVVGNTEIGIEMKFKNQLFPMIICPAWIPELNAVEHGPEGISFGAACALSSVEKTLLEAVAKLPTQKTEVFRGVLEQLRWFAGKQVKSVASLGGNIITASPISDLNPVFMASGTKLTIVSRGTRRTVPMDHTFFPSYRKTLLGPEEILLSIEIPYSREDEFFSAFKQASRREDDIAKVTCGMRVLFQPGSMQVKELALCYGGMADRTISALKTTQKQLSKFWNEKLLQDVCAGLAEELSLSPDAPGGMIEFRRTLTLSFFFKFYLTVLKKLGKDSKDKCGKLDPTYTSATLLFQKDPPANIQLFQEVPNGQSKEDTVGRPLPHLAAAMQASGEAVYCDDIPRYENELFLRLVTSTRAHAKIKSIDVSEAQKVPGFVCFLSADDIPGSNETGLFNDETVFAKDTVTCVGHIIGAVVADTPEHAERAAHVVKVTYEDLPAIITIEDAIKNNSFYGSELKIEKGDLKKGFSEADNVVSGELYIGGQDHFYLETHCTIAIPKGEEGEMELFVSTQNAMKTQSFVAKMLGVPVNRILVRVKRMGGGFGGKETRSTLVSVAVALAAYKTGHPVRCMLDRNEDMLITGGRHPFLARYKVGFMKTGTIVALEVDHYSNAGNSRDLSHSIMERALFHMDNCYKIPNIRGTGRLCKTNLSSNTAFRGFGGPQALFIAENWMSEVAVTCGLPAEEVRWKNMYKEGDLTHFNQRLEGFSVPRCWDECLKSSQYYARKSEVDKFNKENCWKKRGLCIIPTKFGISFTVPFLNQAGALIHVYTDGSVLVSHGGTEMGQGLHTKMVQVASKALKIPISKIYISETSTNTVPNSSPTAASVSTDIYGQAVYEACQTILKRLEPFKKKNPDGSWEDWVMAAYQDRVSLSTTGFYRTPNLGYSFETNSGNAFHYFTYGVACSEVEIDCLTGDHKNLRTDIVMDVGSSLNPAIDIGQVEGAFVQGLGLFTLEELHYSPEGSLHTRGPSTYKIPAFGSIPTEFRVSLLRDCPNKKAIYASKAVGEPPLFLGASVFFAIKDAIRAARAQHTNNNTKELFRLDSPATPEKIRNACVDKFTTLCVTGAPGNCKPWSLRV

In the case of `N#Cc1cn(-c2ccc(C(=O)O)cc2)nc1-c1ccccc1F` [XO-TT559], the IC50 in test [1] came out at 2.91 nM. For the same compound, the inhibition in vivo at 10 mg/kg in test [2] was 75.9%.
Regarding `Cc1ccc(-c2cn(-c3ccc(C(=O)O)cc3)cc2C#N)cc1` [XO-B423], in test [1], the IC50 came to 4.26 nM. Besides, the inhibition in vivo at 10 mg/kg in test [2] is 66.6%.
Turning to `Cc1ccc(-c2nn(-c3ccc(C(=O)O)cc3)cc2C#N)cc1` [XO-TT537], the IC50 in test [1] was determined as 4.86 nM.
On the same count and under the same terms, as for `N#Cc1cn(-c2ccc(C(=O)O)cc2)cc1-c1nccs1` [XO-B420], the figure is 6.33 nM.
For the compound `N#Cc1cn(-c2ccc(C(=O)O)cc2)nc1-c1ccccc1Cl` [XO-TT524], the IC50 in test [1] was 5.18 nM. For the same compound, in test [2], the inhibition in vivo at 10 mg/kg is 68.7%.
For `COc1ccccc1-c1cn(-c2ccc(C(=O)O)cc2)cc1C#N` [XO-B403] the same measures were 5.98 nM and 62.1%.
For `Cn1cccc1-c1cn(-c2ccc(C(=O)O)cc2)cc1C#N` [XO-B410] the same measures were 5 nM and 59.1%.
`Cc1ccc(-c2nn(-c3ccc(C(=O)O)cc3)cc2C#N)s1` [XO-TT554]: in test [1], the IC50 amounted to 5.44 nM. Also, the inhibition in vivo at 10 mg/kg in test [2] was determined as 60.5%.
Take `N#Cc1cn(-c2ccc(C(=O)O)cc2)c2ncccc12` [XO-KT10]: the inhibition at 100 µM in test [3] worked out at 92.3%.
As for `N#Cc1cn(-c2ccc(C(=O)O)cc2)cc1-c1ccc(Cl)s1` [XO-B414], the IC50 in test [1] was found to be 5.86 nM. For the same compound, the inhibition in vivo at 10 mg/kg in test [2] was determined as 67.1%.
Taken in the same sequence, the figures for `Cc1ccccc1-c1nn(-c2ccc(C(=O)O)cc2)cc1C#N` [XO-TT573] were 4 nM and 66.3%.
Consider `COc1ccc(-c2nn(-c3ccc(C(=O)O)cc3)cc2C#N)cc1` [XO-TT544], for which, in test [1], the IC50 came out at 3.77 nM. In addition, in test [2], the inhibition in vivo at 10 mg/kg is 71.1%.
For `N#Cc1cn(-c2ccc(C(=O)O)cc2)cc1-c1ccc(C(F)(F)F)cc1` [XO-B428] the same measures were 5.09 nM and 68.3%.
For `Cc1ccc(-c2cn(-c3ccc(C(=O)O)cc3)cc2C#N)s1` [XO-B399-2] the same measures were 5.56 nM and 69.4%.
As for `N#Cc1nn(-c2ccc(C(=O)O)cc2)nc1-c1ccccc1` [XO-B366], the IC50 in test [1] was found to be 77.7 nM.
As to `N#Cc1cn(-c2ccc(C(=O)O)cc2)nc1-c1ccccc1` [XO-TT469], the IC50 in test [1] is 8.18 nM. Also, the inhibition in vivo at 10 mg/kg in test [2] was 75%.
For `N#Cc1cn(-c2ccc(C(=O)O)cc2)cc1-c1ccccc1` [XO-B327] the same measures were 4.9 nM and 74.1%.
With `COc1cccc(-c2nn(-c3ccc(C(=O)O)cc3)cc2C#N)c1` [XO-TT552], the IC50 in test [1] was 5.59 nM.
On to `Cc1ccsc1-c1nn(-c2ccc(C(=O)O)cc2)cc1C#N` [XO-TT545], for which, in test [1], the IC50 turned out to be 5.21 nM. The inhibition in vivo at 10 mg/kg in test [2] was found to be 75.8%.
Consider `Cc1cccc2c(C#N)cn(-c3ccc(C(=O)O)cc3)c12` [XO-CH205], for which, in test [3], the inhibition at 100 µM stood at 95.7%.
The same measure, in the same setting: as for `Cc1c(C#N)c2ccccc2n1-c1ccc(C(=O)O)cc1` [XO-CH172], the figure is 88.3%.
For the compound `N#Cc1cn(-c2ccc(C(=O)O)cc2)nc1-c1ccc(F)cc1` [XO-TT572], in test [1], the IC50 amounted to 4.12 nM. The inhibition in vivo at 10 mg/kg in test [2] came to 56.1%.
For `COc1ccc(-c2cn(-c3ccc(C(=O)O)cc3)cc2C#N)cc1` [XO-B422] the same measures were 3.56 nM and 79%.
Take `N#Cc1cn(-c2ccc(C(=O)O)cc2)c2cc(C(F)(F)F)ccc12` [XO-CH206]: the inhibition at 100 µM in test [3] stood at 98.1%.
In test [3], `N#Cc1nn(-c2ccc(C(=O)O)cc2)c2ccccc12` [XO-KT30] yielded an inhibition at 100 µM of 79.9%.
On the same count and under the same terms, in the case of `N#Cc1cnc2c(c1)c(C#N)cn2-c1ccc(C(=O)O)cc1` [XO-KT20] it was 64.6%.
As to `Cc1ccccc1-c1cn(-c2ccc(C(=O)O)cc2)cc1C#N` [XO-B395-1], in test [1], the IC50 came to 3.59 nM. Further, the inhibition in vivo at 10 mg/kg in test [2] is 79.1%.
Taken in the same sequence, the figures for `N#Cc1cn(-c2ccc(C(=O)O)cc2)cc1-c1ccccc1F` [XO-B436] were 3.71 nM and 77.3%.
In the case of `N#Cc1cn(-c2ccc(-c3nnn[nH]3)cc2)nc1-c1ccccc1` [XO-TT473], the IC50 in test [1] was 16 nM.
On the same count and under the same terms, in the case of `COc1ccccc1-c1nn(-c2ccc(C(=O)O)cc2)cc1C#N` [XO-TT574] it was 5.52 nM.
Turning to `N#Cc1cn(-c2ccc(C(=O)O)cc2)cc1-c1ccc(Cl)cc1` [XO-B421], in test [1], the IC50 worked out at 5.71 nM. For the same compound, in test [2], the inhibition in vivo at 10 mg/kg came out at 57.8%.
Taken in the same sequence, the figures for `N#Cc1cn(-c2ccc(C(=O)O)cc2)cc1-c1ccccc1Cl` [XO-B397] were 5.24 nM and 76.7%.
Take `N#Cc1cn(-c2ccc(C(=O)O)cc2)nc1-c1ccccc1C(F)(F)F` [XO-TT561]: the IC50 in test [1] is 8.47 nM.
On to `Cc1c(-c2ccccc2)c(C#N)cn1-c1ccc(C(=O)O)cc1` [XO-B440], for which the IC50 in test [1] was determined as 15.2 nM. Also, the inhibition in vivo at 10 mg/kg in test [2] is 57.6%.
For `N#Cc1cn(-c2ccc(C(=O)O)cc2)cc1-c1ccc(F)cc1` [XO-B438] the same measures were 5.03 nM and 69.3%.

One may read the IC50 as the concentration needed to halve the response being measured. For orientation: inhibition means the change of the read-out against control, counted positive when it falls.
